Data from paper PMC12715762, “Discovery of VU6052254: A Novel, Potent M1 Positive Allosteric Modulator” (ACS Chemical Neuroscience, 2025).
“Also recorded” adds a separate entry of the source.

Experiments:
[1] = target: CYP 2C9 (Homo sapiens, UniProt P11712); assay: CYP450 inhibition; type: in vitro ADME
[2] = target: Adrenergic α1A (Homo sapiens, UniProt P35348); assay: Eurofins radioligand binding
[3] = test system: Rolipram; assay: Eurofins radioligand binding; conditions: Rat
[4] = test system: Sprague-Dawley rats; assay: contextual fear conditioning (CFC); type: in vivo, rat
Method: Contextual Fear Conditioning
Contextual Fear Conditioning. Studies were conducted using conditioning chambers in sound attenuating cubicles equipped with a stainless steel grid floor for shock delivery and a video camera for recording freezing behavior (Med Associates, Fairfax, Vermont). Rats were acclimated to the apparatus for 3 days (10 minutes each day) prior to conditioning. On the training (conditioning) day, rats were pretreated by oral gavage with Vehicle (10% Tween 80) or Compound X […]
conditioning chamber that contained 1 mL 10% vanilla extract as odor cue.2 After a 180-sec

[5] = target: Dopamine D4.2 (Homo sapiens, UniProt P21917, DEL265-296); assay: Eurofins radioligand binding
[6] = test system: Calcium Channel L-Type, Benzothiazepine; assay: Eurofins radioligand binding; conditions: Rat
[7] = target: Serotonin (5-HT3) (Homo sapiens, UniProt P46098); assay: Eurofins radioligand binding
[8] = target: Transporter, GABA (Rattus norvegicus, UniProt P23978); assay: Eurofins radioligand binding
[9] = target: Serotonin (5-HT2B) (Homo sapiens, UniProt P41595); assay: Eurofins radioligand binding
[10] = plasma protein binding, equilibrium dialysis (rat); type: in vitro ADME; conditions: pH 7.4, rat (r), read-out: fu,plasma
Method: (§1) Plasma protein binding and Brain homogenate binding: Determination of fraction unbound (f u) in plasma was conducted in vitro via equilibrium dialysis using HTDialysis (HTD) membrane plates. The top half of the plate was filled with 100 uL of Dubelco’s Phosphate Buffered Saline, pH 7.4 (DPBS). Compounds were diluted into plasma from each species (5 µM final concentration), which was aliquoted in triplicate to the ‘bottom half’ of the prepared HTD plate wells. The HTD plate was sealed and incubated for 6 hours at 37 °C. Following incubation, each well (both top and bottom halves) were transferred (20 µL) to the corresponding wells of a 96-shallow-well (V-bottom) plate. […]
(§2) The unbound fraction (f u) was calculated following the equation below, and mean values for each species were calculated from 3 replicates.
(§3) A similar approach was used to determine the degree of brain homogenate binding, which employed the same methodology and procedure with the following modifications: 1) a final compound concentration of 1 μM was used, 2) naïve rat brains were homogenized in DPBS (1:3 composition of brain: DPBS, w/w) using a Mini-Bead Beater™ machine in order to obtain brain homogenate, which was then treated in the same manner as the plasma samples in the previously described plasma protein binding assay. Fraction unbound for both plasma and brain samples was determined using Equation 4. […]

[11] = test system: Sprague-Dawley rats; assay: novel object recognition (NOR); type: in vivo, rat
Method: monitored continuously and scored for behavioral manifestations of seizure activity at 5, 15, 30 min, and 1 h. Behavioral manifestations of seizures were scored using a modified Racine scoring system. Briefly, a score of 0 represents no behavior alterations; score 1, immobility, mouth and facial movements, or facial clonus; score 2, head nodding, tail extension; score 3, forelimb clonus, repetitive movements; score 4, rearing and tonic clonic seizure; and score 5, continuous rearing and falling, severe generalized tonic clonic seizure.
Novel Object Recognition Task
Rats were habituated for 10 min for 2 consecutive days in an empty novel object recognition (NOR) arena consisting of dark-colored plexiglass box (40 × 64 × 33 cm3). On day 3 rats were administered vehicle, M1 PAM 3 (1-10 mg/kg, p.o.., 10 mL/kg, n = 13-18), or M 1 PAM 5 (0.3-3 mg/kg, p.o.., 10 mL/kg, n = 16-18) and returned to their home cage for 60 min (M 1 PAM 5) or 2 hr (M1 PAM 3. Rats were then placed in the NOR arena containing two identical objects for 10 min. Following the exposure period, rats were placed back into their home cages for 24 h. The rats were then returned to the arena in which one of the previously exposed (familiar) objects was replaced by a novel object and were video recorded for 5 min while they explored the two objects.
Time spent exploring each object was scored by an observer blinded to the experimental conditions and the recognition index was calculated as [(time spent exploring novel object) – (time spent exploring familiar object)]/total time exploring objects.

[12] = target: Bradykinin B2 (Homo sapiens, UniProt P30411); assay: Eurofins radioligand binding
[13] = test system: 3A4; assay: CYP450 induction in human hepatocytes (three donors); type: cell-based
[14] = IV/PO pharmacokinetics (NHP); type: in vivo; conditions: NHP (cyno)
[15] = test system: Thyroid Hormone; assay: Eurofins radioligand binding; conditions: Rat
[16] = test system: 1A2; assay: CYP450 induction in human hepatocytes (three donors); type: cell-based; conditions: 10 μM, human hepatocytes from three donors
[17] = test system: CV ion channels; assay: CV ion channel EP panel; type: cell-based; conditions: result in words
[18] = plasma protein binding, equilibrium dialysis (dog); type: in vitro ADME; conditions: pH 7.4, dog (d), read-out: fu,plasma
Method: as §1, §2, §3

[19] = test system: Glutamate, NMDA, Glycine; assay: Eurofins radioligand binding; conditions: Rat
[20] = PO, 10% Tween 80 in water, male Sprague-Dawley rats
[21] = cynomolgus monkey, plasma, 3 mg/kg po

Sequence of Serotonin (5-HT3) (P46098 24-478): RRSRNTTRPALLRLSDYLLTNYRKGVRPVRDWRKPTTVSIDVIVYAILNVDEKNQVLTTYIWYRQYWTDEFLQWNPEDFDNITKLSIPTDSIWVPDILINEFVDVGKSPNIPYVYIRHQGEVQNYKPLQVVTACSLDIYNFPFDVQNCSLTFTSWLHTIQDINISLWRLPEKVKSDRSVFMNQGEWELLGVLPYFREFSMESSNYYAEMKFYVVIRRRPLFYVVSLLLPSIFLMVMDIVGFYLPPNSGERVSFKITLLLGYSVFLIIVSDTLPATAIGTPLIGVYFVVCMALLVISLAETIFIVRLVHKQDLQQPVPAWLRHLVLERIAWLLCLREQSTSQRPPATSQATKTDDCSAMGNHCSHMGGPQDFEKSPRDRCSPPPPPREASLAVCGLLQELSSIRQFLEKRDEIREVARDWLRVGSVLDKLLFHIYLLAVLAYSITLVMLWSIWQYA
Sequence of Serotonin (5-HT2B) (P41595 whole entry): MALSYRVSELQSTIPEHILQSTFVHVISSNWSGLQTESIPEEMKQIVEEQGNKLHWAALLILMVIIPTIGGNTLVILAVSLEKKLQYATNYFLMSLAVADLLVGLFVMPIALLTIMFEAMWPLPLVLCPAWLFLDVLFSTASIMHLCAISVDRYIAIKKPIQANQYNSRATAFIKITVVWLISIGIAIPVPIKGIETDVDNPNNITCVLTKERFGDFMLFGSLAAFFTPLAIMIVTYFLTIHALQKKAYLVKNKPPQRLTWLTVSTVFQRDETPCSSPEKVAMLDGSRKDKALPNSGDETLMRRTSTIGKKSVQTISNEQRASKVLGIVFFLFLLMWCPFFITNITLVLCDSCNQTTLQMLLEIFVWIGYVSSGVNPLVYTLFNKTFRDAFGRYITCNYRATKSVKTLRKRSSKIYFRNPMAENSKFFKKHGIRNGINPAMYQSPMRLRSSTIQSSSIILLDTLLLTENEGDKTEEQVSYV
Sequence of Dopamine D4.2 (P21917 with tags, fused parts or gaps DEL265-296): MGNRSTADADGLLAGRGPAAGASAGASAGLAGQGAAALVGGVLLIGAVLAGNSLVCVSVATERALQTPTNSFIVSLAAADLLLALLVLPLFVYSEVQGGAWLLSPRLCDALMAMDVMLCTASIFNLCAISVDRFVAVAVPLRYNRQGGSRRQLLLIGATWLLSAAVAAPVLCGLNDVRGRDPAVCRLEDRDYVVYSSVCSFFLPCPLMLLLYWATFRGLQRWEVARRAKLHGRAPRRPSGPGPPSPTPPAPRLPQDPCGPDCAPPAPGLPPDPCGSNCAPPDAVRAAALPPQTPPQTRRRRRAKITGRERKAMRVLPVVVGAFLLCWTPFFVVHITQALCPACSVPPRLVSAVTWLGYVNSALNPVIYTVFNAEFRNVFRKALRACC
Sequence of Bradykinin B2 (P30411 whole entry): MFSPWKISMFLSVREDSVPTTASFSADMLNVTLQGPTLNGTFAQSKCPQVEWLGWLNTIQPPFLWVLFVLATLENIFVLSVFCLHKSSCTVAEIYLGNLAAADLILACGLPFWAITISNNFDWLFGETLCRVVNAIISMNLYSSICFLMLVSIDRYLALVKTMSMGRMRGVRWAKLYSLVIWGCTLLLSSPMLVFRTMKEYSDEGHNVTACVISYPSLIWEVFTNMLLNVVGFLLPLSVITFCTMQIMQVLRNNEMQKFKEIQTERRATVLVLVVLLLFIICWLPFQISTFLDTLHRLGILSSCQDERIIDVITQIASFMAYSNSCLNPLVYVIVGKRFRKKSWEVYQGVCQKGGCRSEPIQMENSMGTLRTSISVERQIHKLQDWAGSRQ
Sequence of Adrenergic α1A (P35348 whole entry): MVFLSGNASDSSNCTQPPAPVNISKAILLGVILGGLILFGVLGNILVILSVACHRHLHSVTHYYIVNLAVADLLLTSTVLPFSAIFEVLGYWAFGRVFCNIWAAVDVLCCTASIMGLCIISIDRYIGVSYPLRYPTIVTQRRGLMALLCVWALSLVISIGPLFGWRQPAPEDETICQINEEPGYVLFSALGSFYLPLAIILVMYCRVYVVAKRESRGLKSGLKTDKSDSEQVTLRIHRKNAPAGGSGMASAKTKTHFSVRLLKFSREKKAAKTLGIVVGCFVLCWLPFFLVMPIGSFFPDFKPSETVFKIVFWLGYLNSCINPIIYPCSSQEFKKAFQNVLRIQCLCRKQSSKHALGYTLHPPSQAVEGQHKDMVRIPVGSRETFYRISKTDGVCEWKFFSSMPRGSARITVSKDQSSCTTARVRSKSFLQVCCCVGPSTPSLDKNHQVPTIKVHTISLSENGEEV
Sequence of CYP 2C9 (P11712 whole entry): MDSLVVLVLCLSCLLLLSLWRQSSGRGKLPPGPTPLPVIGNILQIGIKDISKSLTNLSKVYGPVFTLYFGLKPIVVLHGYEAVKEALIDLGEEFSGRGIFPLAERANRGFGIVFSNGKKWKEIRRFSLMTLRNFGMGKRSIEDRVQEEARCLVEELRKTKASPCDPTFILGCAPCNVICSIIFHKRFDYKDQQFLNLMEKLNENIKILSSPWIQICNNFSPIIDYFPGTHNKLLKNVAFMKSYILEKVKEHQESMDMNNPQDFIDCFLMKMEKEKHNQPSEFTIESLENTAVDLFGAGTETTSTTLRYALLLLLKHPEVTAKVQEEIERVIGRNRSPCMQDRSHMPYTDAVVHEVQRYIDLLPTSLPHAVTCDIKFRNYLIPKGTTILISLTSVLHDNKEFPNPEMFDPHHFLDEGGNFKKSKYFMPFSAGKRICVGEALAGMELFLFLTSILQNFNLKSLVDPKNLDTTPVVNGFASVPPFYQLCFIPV

In the case of `Cn1cc2c(-c3cc(F)c(CN4Cc5ncccc5C4=O)c(F)c3)ccc(C(C)(C)O)c2n1` [compound 7], the IC50 [1] is reported as > 30 µM, the inhibition at 10 µM [2] is reported as 13% and the “% Inhibition at 10 µM” value [3] is reported as 61%. The “total brain concentration at CFC MED” value ([4]; 0.3 mg/kg PO, rat) was 58 nM, the “effect on acquisition of CFC” value ([4]; 0.03-3 mg/kg PO, result in words) was “robust dose-dependent enhancement in the acquisition of contextual fear conditioning; also recorded: dose-dependently enhanced the acquisition of CFC” and the “minimum effective dose (MED) in rat CFC” value [4, 20] was 0.3 mg/kg. The inhibition at 10 µM [5] was -5%, the “% Inhibition at 10 µM” value [6] was 80% and the inhibition at 10 µM [7] was -14%. For the same molecule, the inhibition at 10 µM [8] was -12%, the inhibition at 10 µM [9] was 20% and the fraction unbound at 6 h, 5 µM [10] was 0.023. For the same molecule, the “free brain concentration at NOR MED” value ([11]; 1 mg/kg PO, rat) was 71 nM, the “effect on recognition index / recognition memory in NOR” value ([11]; 0.3 to 3.0 mg/kg PO, result in words) was “dose-dependently increased the recognition index; also recorded: dose-dependently enhanced the recognition memory” and the “minimum effective dose (MED) in rat NOR” value [11, 20] was 1 mg/kg. For the same molecule, the “margin in terms of dose, NOR MED relative to the seizure assay and the Irwin battery” value ([11]; rat, in vivo) was ~50 fold, the “margin in terms of total brain exposure, NOR MED relative to the seizure assay and the Irwin battery” value ([11]; rat, in vivo) was 11- to 16 fold and the inhibition at 10 µM [12] was -18%. The 3A4 induction ([13]; 10 μM, human hepatocytes from three donors) was 7.6%, the 3A4 induction ([13]; 30 μM, mRNA as the reporter) was 30.5% and the “F (%) po” value ([14]; 3 mg/kg po) was 76%. The clearance ([14]; cynomolgus monkey, plasma, 1 mg/kg iv, read-out: CLp) was 7.3 mL/min/kg, the half-life ([14]; cynomolgus monkey, plasma, 1 mg/kg iv, read-out: Elimination t1/2 (converted)) was 4.9 h and the Vd ([14]; cynomolgus monkey, plasma, 1 mg/kg iv, read-out: Vss) was 1.5 L/kg. It also gave an AUC [14, 21] of 12.4 µM·h, a Cmax [14, 21] of 1100 nM and a Tmax [14, 21] of 4.7 h. The “% Inhibition at 10 µM” value [15] was -1%, the 1A2 induction [16] was 4.9% and the “activity in CV ion channel EP panel” value [17] was “no significant activities”. For the same molecule, the fraction unbound at 6 h, 5 µM [18] was 0.117 and the “% Inhibition at 10 µM” value [19] was -9%.
